From patent publication US20240317739A1, “NOVEL UREA DERIVATIVE COMPOUND AS RON INHIBITOR” (LG CHEM, LTD., priority 2021, published 2024) come the findings set out here.

Bounds are passed on as bounds.

The target of assay [1] is cMET (Homo sapiens, UniProt P08581). The assay is described as follows: Evaluation of inhibitory activity against MET (TR-FRET). The assay is classed as biochemical. The settings on record: TR-FRET kinase assay, cMET protein. The procedure: In addition, in order to measure the enzyme activity inhibition for cMET, the evaluation was performed in the same manner as the enzyme activity inhibition measurement experiment for the RON.
Sequence of cMET (P08581 25-1390): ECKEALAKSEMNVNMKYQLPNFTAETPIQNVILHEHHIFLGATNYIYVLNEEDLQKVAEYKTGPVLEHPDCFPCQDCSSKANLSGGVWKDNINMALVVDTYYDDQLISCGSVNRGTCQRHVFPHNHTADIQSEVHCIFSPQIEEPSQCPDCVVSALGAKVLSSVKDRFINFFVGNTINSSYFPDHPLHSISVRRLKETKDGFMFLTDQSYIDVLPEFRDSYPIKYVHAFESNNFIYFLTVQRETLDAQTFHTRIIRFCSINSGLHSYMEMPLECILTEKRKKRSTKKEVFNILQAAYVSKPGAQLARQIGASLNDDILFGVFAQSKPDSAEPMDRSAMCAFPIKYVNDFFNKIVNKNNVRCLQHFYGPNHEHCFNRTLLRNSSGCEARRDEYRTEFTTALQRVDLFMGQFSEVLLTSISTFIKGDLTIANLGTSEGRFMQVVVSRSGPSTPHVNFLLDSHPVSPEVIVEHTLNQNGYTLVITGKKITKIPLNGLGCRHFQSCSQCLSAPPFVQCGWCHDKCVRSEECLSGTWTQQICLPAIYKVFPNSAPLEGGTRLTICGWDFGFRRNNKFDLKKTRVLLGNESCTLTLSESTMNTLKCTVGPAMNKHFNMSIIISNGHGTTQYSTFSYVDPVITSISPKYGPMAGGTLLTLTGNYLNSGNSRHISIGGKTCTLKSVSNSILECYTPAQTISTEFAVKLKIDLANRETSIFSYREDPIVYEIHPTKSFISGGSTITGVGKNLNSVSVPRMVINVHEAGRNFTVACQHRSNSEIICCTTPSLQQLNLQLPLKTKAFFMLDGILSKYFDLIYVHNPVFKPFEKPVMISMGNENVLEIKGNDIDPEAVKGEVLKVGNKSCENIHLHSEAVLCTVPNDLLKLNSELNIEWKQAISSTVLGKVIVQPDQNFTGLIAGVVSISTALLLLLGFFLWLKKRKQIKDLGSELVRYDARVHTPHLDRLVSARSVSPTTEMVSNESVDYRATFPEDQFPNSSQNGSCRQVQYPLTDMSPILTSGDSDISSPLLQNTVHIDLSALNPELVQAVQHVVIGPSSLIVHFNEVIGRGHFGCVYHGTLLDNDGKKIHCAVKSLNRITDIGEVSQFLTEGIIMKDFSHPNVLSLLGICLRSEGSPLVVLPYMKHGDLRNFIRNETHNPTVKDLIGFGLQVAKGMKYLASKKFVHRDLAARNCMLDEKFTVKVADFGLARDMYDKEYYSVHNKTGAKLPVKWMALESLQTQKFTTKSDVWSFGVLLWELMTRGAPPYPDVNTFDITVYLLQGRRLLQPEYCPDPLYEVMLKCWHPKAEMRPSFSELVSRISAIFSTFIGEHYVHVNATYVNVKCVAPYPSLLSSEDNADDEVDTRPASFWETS
Specifically, the compound was prepared to a concentration of 1 mM with 100% DMSO and was diluted 10 times in a stepwise manner through 3-fold dilution. 2 ul of the compound diluted in a stepwise manner was added to a 96-well-plate containing 48 ul of a 1× kinase reaction buffer (50 mM HEPES (pH 7.4), 0.05% BSA, 0.005% Tween-20, 1 mM DTT, 0.5 mM MnCl2, 20 mM MgCl2).
The cMET protein was diluted to a concentration of 263 nM with a cMET storage buffer (50 mM Tris-HCl (pH 7.5), 150 mM NaCl, 0.05% Brij35, 1 mM DTT, 10% Glycerol), and then diluted again to a concentration of 2 nM with a 1× kinase reaction buffer. As a substrate cocktail, a MET-specific substrate mixture (5 uM TK peptide, […]) at a concentration 2 times the final reaction concentration.
(§1) Thereafter, a 384-well-plate was prepared, and 2.5 μl of each of the diluted compounds of Examples was added to a corresponding well of experimental group wells, and 2.5 μl of a 4% DMSO solution was dispensed into high control wells and low control wells.
(§2) Thereafter, 2.5 μL of 2 nM cMET was dispensed into the high control wells and the experimental group wells, and 2.5 μL of a 1× kinase reaction buffer was added to the low control wells, and the RON and the reaction buffer were centrifuged at room temperature for 40 seconds at 1000 RPM, and then incubated at room temperature for 20 to 30 minutes. Then, 5 uL of a substrate cocktail (2×) was dispensed into all wells, centrifuged at room temperature for 40 seconds at 1000 RPM, and then incubated at room temperature for 60 minutes. Thereafter, 5 uL of 90 mM EDTA was added to all wells to terminate the reaction, and then incubated again at room temperature for 5 minutes. Thereafter, 5 uL of a 4× phosphotyrosine antibody (Perkin Elmer) containing europium was added to all wells, and then incubated at room temperature for 60 minutes. After the incubation, the 384-well-plate was read with a Vison plate reader. At this time, the excitation wavelength was 340 nm, and the emission wavelength was 620 nm and 665 nm. The 1050 value of the compound of each Example was derived using the GraphPd Prism7 program.

Assay [2] concerns the target RON (Homo sapiens, UniProt Q04912). Kind of assay: Evaluation of inhibitory activity against RON (TR-FRET). The assay is classed as biochemical. The note with it: TR-FRET kinase assay, RON protein. How it is done: In order to measure the inhibitory activity of each of the compounds of Examples against RON, the IC50 of each of the compounds was measured using a Time-Resolved Fluorescence Energy Transfer Chemistry (TR-FRET).
Specifically, the compound was prepared to a concentration of 1 mM with 100% DMSO and was diluted 10 times in a stepwise manner through 3-fold dilution. 2 ul of the compound diluted in a stepwise manner was added to a 96-well-plate containing 48 ul of a 1×kinase reaction buffer (50 mM HEPES (pH 7.4), 0.01% Tween-20, 5 mM DTT, 0.5 mM Na3VO4, 2 mM EGTA, 10 mM MgCl2).
The RON protein was diluted to a concentration of 49.3 nM with an RON storage buffer (50 mM Tris-HCl (pH 7.5), 150 mM NaCl, 0.5 mM EDTA, 0.02% Triton X-100), and then diluted again to a concentration of 0.4 nM with a 1×kinase reaction buffer. As a substrate cocktail, a RON-specific substrate mixture (40 uM ULight-labeled Poly GT, 100 nM ATP) at a concentration 2 times the final reaction concentration.
as §1
as §2, with “of 0.4” for “of 2”, “nM RON” for “nM cMET”, “of 30” for “of 90”, “The IC50” for “The 1050”

One may read the IC50 as the concentration needed to halve the response being measured. Read a high IC50 as weaker potency.

Sequence of RON (Q04912 25-1400, species assumed): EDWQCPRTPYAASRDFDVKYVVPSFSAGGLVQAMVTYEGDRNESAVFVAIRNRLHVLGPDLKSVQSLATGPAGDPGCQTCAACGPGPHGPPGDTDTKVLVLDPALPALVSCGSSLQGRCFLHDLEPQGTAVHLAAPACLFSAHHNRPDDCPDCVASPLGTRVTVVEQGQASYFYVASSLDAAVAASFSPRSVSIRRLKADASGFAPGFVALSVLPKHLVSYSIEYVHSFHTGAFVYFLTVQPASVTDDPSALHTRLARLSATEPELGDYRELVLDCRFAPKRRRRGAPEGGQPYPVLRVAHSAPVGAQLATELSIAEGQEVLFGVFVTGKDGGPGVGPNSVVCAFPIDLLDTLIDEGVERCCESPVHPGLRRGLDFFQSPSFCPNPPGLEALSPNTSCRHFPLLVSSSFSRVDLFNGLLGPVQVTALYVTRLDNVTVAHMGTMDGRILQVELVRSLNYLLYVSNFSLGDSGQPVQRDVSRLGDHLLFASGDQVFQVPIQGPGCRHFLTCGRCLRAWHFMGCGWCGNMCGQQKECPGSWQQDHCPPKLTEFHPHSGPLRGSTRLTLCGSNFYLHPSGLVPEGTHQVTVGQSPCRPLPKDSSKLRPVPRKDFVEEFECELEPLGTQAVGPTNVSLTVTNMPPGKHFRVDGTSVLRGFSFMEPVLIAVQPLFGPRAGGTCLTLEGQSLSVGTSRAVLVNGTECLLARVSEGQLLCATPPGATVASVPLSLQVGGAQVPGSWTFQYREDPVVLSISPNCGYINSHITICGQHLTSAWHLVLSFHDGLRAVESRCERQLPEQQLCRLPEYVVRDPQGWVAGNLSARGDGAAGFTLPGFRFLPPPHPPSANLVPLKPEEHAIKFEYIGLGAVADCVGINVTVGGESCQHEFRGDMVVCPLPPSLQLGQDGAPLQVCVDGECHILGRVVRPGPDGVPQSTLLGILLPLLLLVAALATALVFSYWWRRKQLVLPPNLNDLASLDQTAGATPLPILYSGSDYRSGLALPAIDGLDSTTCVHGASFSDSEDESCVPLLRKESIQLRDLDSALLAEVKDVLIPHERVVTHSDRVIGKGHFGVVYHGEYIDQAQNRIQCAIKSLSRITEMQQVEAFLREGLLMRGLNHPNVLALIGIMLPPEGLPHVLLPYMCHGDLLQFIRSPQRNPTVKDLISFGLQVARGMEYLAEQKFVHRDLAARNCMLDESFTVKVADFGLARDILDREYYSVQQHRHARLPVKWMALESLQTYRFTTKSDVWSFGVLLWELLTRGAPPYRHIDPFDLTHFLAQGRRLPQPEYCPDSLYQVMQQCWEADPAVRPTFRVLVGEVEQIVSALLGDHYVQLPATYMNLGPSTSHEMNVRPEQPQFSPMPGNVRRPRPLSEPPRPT

Turning to `CCc1c(C(=O)Nc2ccc(Oc3ccnc4[nH]c(=O)[nH]c34)c(F)c2)cnn1-c1cncnc1` [Example 1, 5-ethyl-N-(3-fluoro-4-((2-oxo-2,3-dihydro-1H-imidazo[4,5-b]pyridine-7-yl)oxy)phenyl)-1-(pyrimidine-5-yl)-1H-pyrazole-4-carboxamide], the IC50 in assay [1] and in assay [2] was more than 5000 nM throughout.
For the compound `CCc1c(C(=O)Nc2ccc(Oc3ccnc4[nH]c(=O)n(C(C)C)c34)c(F)c2)cnn1-c1cncnc1` [Example 2, 5-ethyl-N-(3-fluoro-4-((1-isopropyl-2-oxo-2,3-dihydro-1H-imidazo[4,5-b]pyridine-7-yl)oxy)phenyl)-1-(pyrimidine-5-yl)-1H-pyrazole-4-carboxamide], the IC50 was more than 5000 nM in assay [1] and less than 50 nM in assay [2].
With `CC(C)n1c(=O)[nH]c2nccc(Oc3ccc(NC(=O)c4cnn(-c5ccccn5)c4C(F)(F)F)cc3F)c21` [Example 3, N-(3-fluoro-4-((1-isopropyl-2-oxo-2,3-dihydro-1H-imidazo[4,5-b]pyridine-7-yl)oxy)phenyl)-1-(pyridine-2-yl)-5-(trifluoromethyl)-1H-pyrazole-4-carboxamide], the IC50 in assay [1] is more than 5000 nM; in assay [2] it was less than 50 nM.
`CC(C)n1c(=O)[nH]c2nccc(Oc3ccc(NC(=O)c4cnn(-c5cncnc5)c4C(F)(F)F)cc3F)c21` [Example 4, N-(3-fluoro-4-((1-isopropyl-2-oxo-2,3-dihydro-1H-imidazo[4,5-b]pyridine-7-yl)oxy)phenyl)-1-(pyrimidine-5-yl)-5-(trifluoromethyl)-1H-pyrazole-4-carboxamide]: the IC50 in assay [1] is more than 5000 nM; in assay [2] it was less than 50 nM.
In the case of `Cc1c(C(=O)Nc2ccc(Oc3ccnc4[nH]c(=O)n(C(C)C)c34)c(F)c2)cnn1-c1cncnc1` [Example 5, N-(3-fluoro-4-((1-isopropyl-2-oxo-2,3-dihydro-1H-imidazo[4,5-b]pyridine-7-yl)oxy)phenyl)-5-methyl-1-(pyrimidine-5-yl)-1H-pyrazole-4-carboxamide], the figures for the IC50 in assay [1] and in assay [2] were 500 to 5000 nM and 50 to 500 nM, respectively.
With `CCc1c(C(=O)Nc2ccc(Oc3ccnc4[nH]c(=O)n(C5CCCC5)c34)c(F)c2)cnn1-c1cncnc1` [Example 6, N-(4-((1-cyclopentyl-2-oxo-2,3-dihydro-1H-imidazo[4,5-b]pyridine-7-yl)oxy)-3-fluorophenyl)-5-ethyl-1-(pyrimidine-5-yl)-1H-pyrazole-4-carboxamide], the IC50 is more than 5000 nM in assay [1] and 50 to 500 nM in assay [2].
Turning to `CC(C)n1c(=O)[nH]c2nccc(Oc3ccc(NC(=O)c4cnn(-c5ncccc5F)c4C(F)(F)F)cc3F)c21` [Example 7, N-(3-fluoro-4-((1-isopropyl-2-oxo-2,3-dihydro-1H-imidazo[4,5-b]pyridine-7-yl)oxy)phenyl)-1-(3-fluoropyridine-2-yl)-5-(trifluoromethyl)-1H-pyrazole-4-carboxamide], the IC50 is 500 to 5000 nM in assay [1] and less than 50 nM in assay [2].
On to `Cc1cccnc1-n1ncc(C(=O)Nc2ccc(Oc3ccnc4[nH]c(=O)n(C(C)C)c34)c(F)c2)c1C(F)(F)F` [Example 8, N-(3-fluoro-4-((1-isopropyl-2-oxo-2,3-dihydro-1H-imidazo[4,5-b]pyridine-7-yl)oxy)phenyl)-1-(3-methylpyridine-2-yl)-5-(trifluoromethyl)-1H-pyrazole-4-carboxamide], for which the IC50 in assay [1] is 500 to 5000 nM; in assay [2] it was less than 50 nM.
On to `Cc1ccc(-n2ncc(C(=O)Nc3ccc(Oc4ccnc5[nH]c(=O)n(C(C)C)c45)c(F)c3)c2C(F)(F)F)nc1` [Example 9, N-(3-fluoro-4-((1-isopropyl-2-oxo-2,3-dihydro-1H-imidazo[4,5-b]pyridine-7-yl)oxy)phenyl)-1-(5-methylpyridine-2-yl)-5-(trifluoromethyl)-1H-pyrazole-4-carboxamide], for which the IC50 in assay [1] is more than 5000 nM; in assay [2], 50 to 500 nM.
Turning to `CC(C)n1c(=O)[nH]c2nccc(Oc3ccc(NC(=O)c4cnn(-c5ncccc5Cl)c4C(F)(F)F)cc3F)c21` [Example 10, 1-(3-chloropyridine-2-yl)-N-(3-fluoro-4-((1-isopropyl-2-oxo-2,3-dihydro-1H-imidazo[4,5-b]pyridine-7-yl)oxy)phenyl)-5-(trifluoromethyl)-1H-pyrazole-4-carboxamide], the IC50 in assay [1] is 500 to 5000 nM; in assay [2] it was less than 50 nM.
For the compound `CC(C)n1c(=O)[nH]c2nccc(Oc3ccc(NC(=O)c4cnn(-c5ccc(Cl)cn5)c4C(F)(F)F)cc3F)c21` [Example 11, 1-(5-chloropyridine-2-yl)-N-(3-fluoro-4-((1-isopropyl-2-oxo-2,3-dihydro-1H-imidazo[4,5-b]pyridine-7-yl)oxy)phenyl)-5-(trifluoromethyl)-1H-pyrazole-4-carboxamide], the IC50 in assay [1] is more than 5000 nM; in assay [2], 50 to 500 nM.
For `CC(C)n1c(=O)[nH]c2nccc(Oc3ccc(NC(=O)c4cnn(-c5ncccc5C(F)(F)F)c4C(F)(F)F)cc3F)c21` [Example 12, N-(3-fluoro-4-((1-isopropyl-2-oxo-2,3-dihydro-1H-imidazo[4,5-b]pyridine-7-yl)oxy)phenyl)-5-(trifluoromethyl)-1-(3-(trifluoromethyl)pyridine-2-yl)-1H-pyrazole-4-carboxamide], the values for the IC50 in assay [1] and in assay [2] were 500 to 5000 nM and less than 50 nM, respectively.
On the same counts, the results for `CC(C)n1c(=O)[nH]c2nccc(Oc3ccc(NC(=O)c4cnn(-c5ccc(C(F)(F)F)cn5)c4C(F)(F)F)cc3F)c21` [Example 13, N-(3-fluoro-4-((1-isopropyl-2-oxo-2,3-dihydro-1H-imidazo[4,5-b]pyridine-7-yl)oxy)phenyl)-5-(trifluoromethyl)-1-(5-(trifluoromethyl)pyridine-2-yl)-1H-pyrazole-4-carboxamide] are more than 5000 nM and more than 5000 nM.
In the case of `Cc1ccnc(-n2ncc(C(=O)Nc3ccc(Oc4ccnc5[nH]c(=O)n(C(C)C)c45)c(F)c3)c2C(F)(F)F)c1` [Example 14, N-(3-fluoro-4-((1-isopropyl-2-oxo-2,3-dihydro-1H-imidazo[4,5-b]pyridine-7-yl)oxy)phenyl)-1-(4-methylpyridine-2-yl)-5-(trifluoromethyl)-1H-pyrazole-4-carboxamide], the IC50 in assay [1] is more than 5000 nM; in assay [2] it was less than 50 nM.
In the same order, the values of `CC(C)n1c(=O)[nH]c2nccc(Oc3ccc(NC(=O)c4cnn(-c5cc(Cl)ccn5)c4C(F)(F)F)cc3F)c21` [Example 15, 1-(4-chloropyridine-2-yl)-N-(3-fluoro-4-((1-isopropyl-2-oxo-2,3-dihydro-1H-imidazo[4,5-b]pyridine-7-yl)oxy)phenyl)-5-(trifluoromethyl)-1H-pyrazole-4-carboxamide] are more than 5000 nM and less than 50 nM.
With `CC(C)n1c(=O)[nH]c2nccc(Oc3ccc(NC(=O)c4cnn(-c5cc(Br)ccn5)c4C(F)(F)F)cc3F)c21` [Example 16, 1-(4-bromopyridine-2-yl)-N-(3-fluoro-4-((1-isopropyl-2-oxo-2,3-dihydro-1H-imidazo[4,5-b]pyridine-7-yl)oxy)phenyl)-5-(trifluoromethyl)-1H-pyrazole-4-carboxamide], the IC50 in assay [1] is more than 5000 nM; in assay [2] it was less than 50 nM.
